Columns and labels:
[1] = system: carrageenin-induced foot edema; test: carrageenin-edema test (CE), inhibition of carrageenin-induced foot edema in rats; assay type: in vivo; conditions: Rattus norvegicus, dose .324 mmole/kg., read-out: % Inhibition C.E.
Protocol: (1) The inhibition of carrageenin-induced foot edema test essentially described by Winter et al., Proc. Soc. […] Therap. […] J. Vet. […] Arch. Allergy Appl. Immunol.
Here, and elsewhere in other tables which follow, compounds are identified by the Example number above where their preparations are recorded. For purposes of comparison, data are also given for the reference compound 4,5-dihydro-5-oxopyrazolo[1,5-a]quinazoline-3-carboxylic acid disclosed by Wright, ibid., identified here and elsewhere in the tables which follow as "Ref.".

[2] = system: passive cutaneous anaphylaxis; test: passive cutaneous anaphylaxis test in rats (anti-allergy); assay type: in vivo; conditions: rats, standard dose of 100 mg./kg. (p.o.); for inhibition in vivo at 100 mg/kg: Rattus norvegicus, po
Excerpt: (1) The inhibition of carrageenin-induced foot edema test essentially described by Winter et al., Proc. Soc. Exp. Biol. and Med. 111, 544 (1962) as modified by Van Arman et al., J. Pharmacol. Exptl. Therap. 150, 328 (1965) and (2) a modification of the inhibition of adjuvant-induced arthritis test described by Pierson, J. Chronic Diseases 16, 863 (1963) and Glenn et al., Am. J. Vet. Res. 26, 1180 (1965), which were used to establish the anti-inflammatory activities of the compounds; and the passive cutaneous anaphylaxis test described by Mielens et al., Int. Arch. Allergy Appl. Immunol. 47, 633-649 (1974) which was used to establish the anti-allergy activity of the compounds.
Results are expressed either in terms of % Inhibition at a standard dose of 100 mg./kg. (p.o.), as an Average Effective Dose50 (AED50), or as a ratio, R, where: [formula]

Entamoeba criceti = test: amoebacidal test in naturally infected hamsters; assay type: in vivo, Entamoeba criceti (in hamsters)
Protocol: Anti-parasitic activity of the compounds was shown by the following test procedures. Amoebacidal activity was shown in a test in which 100 or more female hamsters (Sprague-Dawley) weighing between 90 and 130 g. were individually weighed and sorted into groups of five animals each averaging either 100 ± 10 g. or 120 ± 10g. The test compounds (at least 200 mg.) and a reference standard, N,N'-(phenylenedimethylene)-bis[α,α-dichloro-N-(2-ethoxyethyl)acetamide] (FALMONOX®), were dissolved or suspended in 10 percent gelatin. The test compounds and the reference standard were administered to the naturally infected hamsters intragastrically via syringe in equally subdivided doses of 0.5 ml. […] On the fourth day each of the test animals and the five hamsters receiving the reference drug, as well as non-medicated infected control animals, were killed and a portion of the mucus from the wall of the cecum was mixed in a drop of 0.85% sodium chloride. The preparation was examined under low power (100 ×) of a compound microscope for the presence of motile trophozoites of Entamoeba criceti, and when a preparation was determined to be free from trophozoites, a second specimen was taken from another part of the cecum of the same animal and thoroughly examined before the animal was declared cleared of amoebas. […] Results were recorded as a fraction: number of hamsters cleared/number of hamsters treated.
(§1) Results obtained in amoebacidal and trypanosomicidal tests on the compounds of the invention against E. criceti and T. brucei, respectively, are given in the table below. Results are expressed as a ratio: Number of Animals Cleared/Total Test Animals.

Trypanosoma brucei = test: trypanosomicidal test in infected mice; assay type: in vivo, Trypanosoma brucei (in mice)
Protocol: Trypanosomicidal activity of the compounds of the invention was determined in a test procedure in which albino female mice (Taconic Farms) weighing 20± 2 g. were intraperitoneally injected 3 days prior to initial medication with 0.2 ml. of an inoculum containing 500 Trypanosoma brucei organisms in 0.85% sterile saline. Blood for infecting purposes was obtained via cardiac puncture of a donor mouse previously determined to have a high parasitemia. Test medications to groups of five mice were started 3 days after infection at a time when the animals had begun to develop a rising blood parasitemia. […] Groups of 10 non-medicated infected control mice and five animals medicated with the reference compound LAMPIT® (tetrahydro-3-methyl-4-[(5-nitrofurfurylidene)amino]-2H-1,4-thiazine-1,1-dioxide) were included in each screening test. The test system is based on the survival of animals medicated with the test compound, and those mice alive at the end of 28 days post-infection were recorded as cured. (Non-medicated infected control mice rarely succumb later than 5 to 6 days post-innoculation with T. brucei). A compound was considered active if at least two of five animals survived until the termination of a 28 day post-infection holding period.
as §1

Cn1c(=O)c2cc(F)ccc2n2ncc(C(=O)O)c12 [Example 7P]
inhibition in vivo at 324 µmol/kg [1]: 0%
% Inhibition (passive cutaneous anaphylaxis) [2]: Inac.
Amoeba (activity in words) (Entamoeba criceti; dose not given): Inac. (inactive when zero or one of the five hamsters were trophozoite free)
No. Cleared/No. Tested, Tryp. (Trypanosoma brucei; dose 200 mg./kg. p.o., i.p.): 3/5

Cn1c(=O)c2cc(NC(=S)Nc3ccccc3)ccc2n2ncc(C(=O)O)c12 [Example 7T]
No. Cleared/No. Tested, Amoeba (Entamoeba criceti; dose 50 mg./kg.): 0/3
No. Cleared/No. Tested, Amoeba (Entamoeba criceti; dose 100 mg./kg.): 3/3
Tryp. (activity in words) (Trypanosoma brucei; dose not given): Inac. (inactive if none of the animals survived to the end of the test)

CCOC(=O)c1cnn2c3ccc(C)cc3c(=O)n(C)c12 [Example 2F]
inhibition in vivo at 100 mg/kg [2]: 6%
% Inhibition (passive cutaneous anaphylaxis) [2]: Inac.
No. Cleared/No. Tested, Amoeba (Entamoeba criceti; dose 25 mg./kg.): 0/5
No. Cleared/No. Tested, Amoeba (Entamoeba criceti; dose 100 mg./kg.): 5/5

O=C(O)c1cnn2c1[nH]c(=O)c1ccc(Cl)cc12 [Example 7L]
inhibition in vivo at 100 mg/kg [2]: 74%
No. Cleared/No. Tested, Amoeba (Entamoeba criceti; dose 100 mg./kg.): 2/5

Source: patent US4105766A, “4,5-Dihydro-5-oxopyrazolo[1,5-a]quinazoline-3-carboxylic acid derivatives” (Sterling Drug Inc., priority 1977, dated 1978)
